# Source: patent US9006181B2 (The Administrators of the Tulane Educational Fund, priority 2004, dated 2015)
# Several values for one entry are separate records, joined by “and”; a condition that tells them apart may be missing. Equal entries are not always repeated. Entries after “also recorded” stand apart in the source; their conditions may differ. Where no end group is shown, it is not given here.
# Assays:
# [1] = tested on: p38 MAPK in human proximal tubule cells; experiment: LC-induced p38 MAPK activation, ELISA for phosphorylated p38 MAPK; format: cell-based
# Text: Cytokine production may depend upon activation (phosphorylation) of p38 MAP kinase (stress-activated protein kinase 2a) isoforms.
# [2] = tested on: TNF-α production by human proximal tubule cells; experiment: LC-induced TNF-α production by renal tubule cells, ELISA; format: cell-based
# Experimental: TNF-α concentrations were determined by ELISA.
# Varying doses of dexamethasone, PACAP38, MAPK kinase inhibitor (U0126), or PDTC were added to renal tubule cell cultures along with 50 μM LC to determine the effects on LC-induced TNF-α production, as measured by ELISA (FIG. 4).
# [3] = tested on: IL-6 production by human proximal tubule cells; experiment: LC-induced IL6 production by renal tubule cells, ELISA; format: cell-based; conditions: for magnitude of IL6 suppression compared with dexamethasone and SB202190: 10^−9 M PACAP vs 10^−9 M dexamethasone or 10 μM SB202190
# Experimental: The overproduction of IL6 by neoplastic cells is strongly associated with the growth of multiple myeloma. Kawano M, et al. Nature. 332: 83 (1988). Varying doses of PACAP38, dexamethasone, or p38 MAPK kinase inhibitor (SB202190) were added to renal tubule cell cultures along with 50 μM LC to determine the effects on LC-induced IL6 production, as measured by ELISA (FIG. 11).
# [4] = tested on: NCI-H929 human myeloma cell line; experiment: Myeloma cell growth, colorimetric BrdU incorporation; format: cell-based
# Experimental: A human myeloma cell line (NCI-H929), which produced the lambda (λ) light chains used supra, were grown for 3 days in media containing non-inactivated media, and in the presence or absence of dexamethasone or PACAP38 (FIG. 8). Cell growth was determined by a colorimetric assay that measured the degree of 5-bromo-2-deoxyuridine (BrdU) incorporation by the cells. […] The therapeutic actions of dexamethasone in the treatment of multiple myeloma are attributed to stimulation of apoptosis.
# [5] = tested on: SV40-immortalized human renal proximal tubule cell cultures; experiment: Immunoglobulin light chain (LC)-induced damage of human renal tubule cells: morphology and survival
# Experimental: SV40-immortalized human renal proximal tubule cell cultures were incubated with immunoglobulin light chains (LC) at 50 μM for 3 days (FIG. 2).
# [6] = tested on: ERK1/2 in human proximal tubule cells; experiment: LC-induced activation of ERK1/2, phospho-ERK1/2 ELISA; format: cell-based; conditions: dexamethasone 10^−7 M, PACAP38 10^−9 M; 50 μM LC, 3 days
# Experimental: The ERK-type MAP kinases (ERK1 and ERK2 or, collectively, ERK1/2) are activated by phosphorylation. Evidence of such activation is visualized by antibody detection techniques, using antibody specific for the phosphorylated forms of ERK1/2. […] ERK1/2 activation was determined by ELISA.
# [7] = tested on: NFκB p50 subunit in human proximal tubule cells; experiment: LC-induced activation of NFκB p50 subunit, ELISA; format: cell-based; conditions: dexamethasone 10^−7 M, PACAP38 10^−9 M; 50 μM LC, 3 days
# Experimental: Human renal tubule cells in vitro were incubated with 50 μM LC for 3 days in the presence or absence of dexamethasone or PACAP38, and assayed by ELISA for activation of NFκB subunits (FIGS. 6 & 7). […] A human Raji cell line (B lymphocyte, Burkitt's lymphoma) was used for positive controls.
# [8] = molecular target: T1, PAC1-R (type I PACAP receptor) (Homo sapiens, UniProt P41586); conditions: cited from earlier work
# T1 sequence (P41586 21-468): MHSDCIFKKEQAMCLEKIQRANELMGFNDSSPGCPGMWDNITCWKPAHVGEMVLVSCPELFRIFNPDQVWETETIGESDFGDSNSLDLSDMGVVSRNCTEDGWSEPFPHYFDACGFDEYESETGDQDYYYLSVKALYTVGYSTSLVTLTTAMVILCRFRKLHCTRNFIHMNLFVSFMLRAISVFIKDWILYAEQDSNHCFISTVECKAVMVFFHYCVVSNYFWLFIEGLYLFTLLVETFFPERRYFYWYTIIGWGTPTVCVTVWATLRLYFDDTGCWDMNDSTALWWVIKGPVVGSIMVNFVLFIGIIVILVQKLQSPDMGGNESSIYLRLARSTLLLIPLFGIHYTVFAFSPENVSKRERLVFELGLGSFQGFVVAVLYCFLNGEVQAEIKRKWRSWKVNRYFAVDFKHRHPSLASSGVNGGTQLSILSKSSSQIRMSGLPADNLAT
compound,measurement,setting,value
"Oc1ccc(-c2nc(-c3ccncc3)c(-c3ccc(F)cc3)[nH]2)cc1 [SB202190, reference compound]",reduction of p38 MAPK activation,[1]; SB202190 10 μM,reduction produced by 10 μM SB202190
"N#CC(=C(/N)Sc1ccccc1N)/C(C#N)=C(\N)Sc1ccccc1N [U0126, reference compound]",suppression of LC-induced TNF-α production,[2]; U0126 high dose,completely suppressed
PACAP[1-38]-NH2 (HSDGIFTDSYSRYRKQMAVKKYLAAVLGKRYKQRVKNK-NH2) [PACAP38],magnitude of IL6 suppression compared with dexamethasone and SB202190,[3],significantly more effective at suppressing IL-6 production than dexamethasone
same,suppression of LC-stimulated IL6 production,"[3]; varying doses, 50 μM LC",significant suppression; also recorded: suppressed by both dexamethasone and PACAP38 in a dose-dependent manner
same,concentration achieving maximal suppression of TNF-α production,[2]; 50 μM LC,10^−9 M and 10^−7 M
same,concentration giving comparable magnitude of TNF-α suppression (dexamethasone vs PACAP38),[2]; 50 μM LC,10^−13 M
same,concentrations showing comparable activity in suppressing LC-induced TNF-α production (pair used in FIGS. 5-7),[2]; 50 μM LC,10^−9 M
same,suppression of LC-induced TNF-α production at a single concentration,[2]; PACAP38 10^−9 M,dramatic suppression
same,suppression of LC-induced TNF-α production,"[2]; varying doses, 50 μM LC, 72 hours",suppressed by both dexamethasone and PACAP38 in a dose-dependent manner
same,concentration of maximal suppression of tumor cell growth,[4]; 3 days,10^−7 M
same,lowest concentration at which tumor cell growth tended to be suppressed,[4]; 3 days,10^−13 M
same,suppression of myeloma cell growth,"[4]; 3 days, media with non-inactivated serum",suppressed growth of myeloma cells in cultures with approximately the same efficacy; also recorded: suppressed cell growth significantly; also recorded: dose-dependent suppression of myeloma cell growth at concentrations significantly lower than dexamethasone
same,growth suppressed at levels as low as,[4]; media containing non-inactivated serum,10^−11 M
same,effect on LC-induced cell damage (FIG. 2C),"[5]; PACAP38 10 nM, LC 50 μM, 3 days",dramatically attenuated
same,"effect on LC-induced morphological changes (cell shrinkage, necrosis, loss of cell-cell adhesion) and survival","[5]; PACAP38 10^−9 M, LC 50 μM, 3 days",prevented the LC-induced changes; also recorded: dramatic preservation of renal tubule cell survival and morphology
same,cell morphology with compound alone,"[5]; PACAP38 alone, 10^−9 M, no LC",did not cause any alteration of cell morphology; also recorded: did not alter the human renal tubule cell morphology
same,reduction of p38 MAPK activation compared with SB202190 and dexamethasone,[1]; 10 nM PACAP38 vs 10 μM SB202190,comparable to reduction produced by 10 μM SB202190; also recorded: comparable to that of the specific p38 MAPK inhibitor itself; also recorded: significantly more effective at comparable doses
same,reduction of LC-induced p38 MAPK activation,"[1]; varying doses, 50 μM LC, 3 days","suppressed activation of p38 MAPK; also recorded: reduced significantly, and in a dose-dependent manner; also recorded: suppressed p38 MAPK activation in a dose-dependent manner"
same,suppression of LC-induced ERK1/2 activation,[6],Neither dexamethasone nor PACAP38 suppressed ERK1/2 MAPK activation; also recorded: the difference was not statistically significant; also recorded: neither dexamethasone nor PACAP38 suppressed light chain-induced ERK1/2 activation significantly
same,suppression of LC-induced NFκB p50 subunit activation,[7],significantly suppressed NFκB p50 activation; also recorded: suppressed by both dexamethasone and PACAP38
PACAP: pituitary adenylate cyclase activating polypeptide; exists as PACAP38 and PACAP27; in Example 8 stands for PACAP38,magnitude of IL6 suppression compared with dexamethasone and SB202190,[3],greater than that observed with either 10^−9 M dexamethasone or 10 μM SB202190
"S=C(S)N1CCCC1 [PDTC, pyrrolidine dithiocarbamate, reference compound]",suppression of LC-induced TNF-α production,"[2]; PDTC 0.125 μM and 12.5 μM, both levels",completely suppressed
"C[C@@H]1C[C@H]2[C@@H]3CCC4=CC(=O)C=C[C@]4(C)[C@@]3(F)[C@@H](O)C[C@]2(C)[C@@]1(O)C(=O)CO [dexamethasone, reference compound]",concentration achieving maximal suppression of TNF-α production,[2]; 50 μM LC,10^−5 M
same,concentration giving comparable magnitude of TNF-α suppression (dexamethasone vs PACAP38),[2]; 50 μM LC,10^−9 M
same,concentrations showing comparable activity in suppressing LC-induced TNF-α production (pair used in FIGS. 5-7),[2]; 50 μM LC,10^−7 M
vasoactive intestinal peptide [VIP],binding to PAC1-R,[8],does not bind
